*1 amine or outer side, *2 acyl side, *3 side chain or, on linkers, in order; H or OH if unused. Where a SMILES comes first, the peptide text is derived from it. Bridges are numbered along the chain shown (N, C = ends). Roman numbers before positions name the chains, in order. [ ]: non-standard residue; d: D form. Actinocin(9to1) = Cc1c2oc3c(C)ccc(C(=O)[*:1])c3nc-2c(C(=O)[*:2])c(N)c1=O; NMeV = CN[C@H](C(=O)O)C(C)C; Sar = CNCC(=O)O
B1: TFB2M: recombinant human mitochondrial transcription factor B2, homologue of yeast Mtf1, expressed in a baculovirus system (protein)
chain: AGRFCILGSEAATRKHLPARNHCGLSDSSPQLWPEPDFRNPPRKASKASLDFKRYVTDRRLAETLAQIYLGKPSRPPHLLLECNPGPGILTQALLEAGAKVVALESDKTFIPHLESLGKNLDGKLRVIHCDFFKLDPRSGGVIKPPAMSSRGLFKNLGIEAVPWTADIPLKVVGMFPSRGEKRALWKLAYDLYSCTSIYKFGRIEVNMFIGEKEFQKLMADPGNPDLYHVLSVIWQLACEIKVLHMEPWSSFDIYTRKGPLENPKRRELLDQLQQKLYLIQMIPRQNLFTKNLTPMNYNIFFHLLKHCFGRRSATVIDHLRSLTPLDARDILMQIGKQEDEKVVNMHPQDFKTLFETIERSKDCAYKWLYDETLEDR

What was measured:
[1] = test system: ρ^0 (143B/206) and ρ^+ (143B) osteosarcoma cells; assay: Flow cytometric analysis of apoptotic cells (annexin V / propidium iodide); type: cell-based, human; details: for apoptosis induced in ρ^0 cells compared with ρ^+ cells (early apoptotic cells, annexin V positive/propidium iodide negative): 16 hours, 0.5 μM staurosporine, 100 ng/ml anti-Fas antibody or 20 ng/ml TNFα plus 100 ng/ml actinomycin D; for proapoptotic effect on ρ^0 or ρ^+ cells: agent alone
Experimental: (§1) A human osteosarcoma-derived cell line, 143B, containing mtDNA (ρ^+), and its mtDNA-less derivative, 143B/206 (ρ^0), were maintained in Dulbecco's Modified Eagle Medium (DMEM)-high glucose ([…]; GibcoBRL, Life Technologies AB, Sweden) containing 10% fetal bovine serum, and 100 IU/ml penicillin-streptomycin (GibcoBRL, Life Technologies AB, Sweden). The 143B/206 ρ^0 cells were additionally supplemented with 1 mM sodium pyruvate (GibcoBRL, Life Technologies AB, Sweden) and 50 μg/ml uridine (Sigma-Aldrich AB, Sweden) as described [King et al, Science 246:500-503 (1989)]. Cells were grown to sub-confluence.
We stained the cells with annexin V and propidium iodide using the Vybrant apoptosis assay kit 2 (Molecular Probes, Leiden, The Netherlands). Flow cytometric analyses were performed on a Beckton Dickinson flow cytometer (FACScan) and the results were analyzed by using the Cell Quest program (Beckton Dickinson).

[2] = test system: NADH dehydrogenase subunit 4 (ND4); details: cited from earlier work
[3] = test system: ρ^0 (143B/206) and ρ^+ (143B) osteosarcoma cells; assay: Measurement of caspase 3 activity; type: cell-based, human; details: 16 hours; ρ^0 and ρ^+ cells; compared to untreated cells
Experimental: as §1
Caspase 3 activity was measured by the caspase 3 assay kit (Pharmingen, CA, USA). Briefly, a tetrapeptide labeled with the fluorochrome 7-amino-4-methylcoumarin (AMC) was used as a substrate to identify and quantitate caspase 3 activity. AMC is released from the substrate upon cleavage by caspase-3. Free AMC is quantified in cell lysates by ultraviolet (UV) using an excitation wavelength of 365 nm and an emission wavelength of 460 nm. […] Caspase 3 activity was measured on ρ^0 and ρ^+ cells incubated with 0.5 μM staurosporin (n=3), 100 ng/ml human anti-Fas antibody plus 100 ng/ml actinomycin D (n=3), and 20 ng/ml human recombinant tumour necrosis factor α plus 100 ng/ml actinomycin D (n=3) for 16 hours.

[4] = target: T1, human mtDNA light strand promoter (LSP) transcription (Homo sapiens, UniProt O00411+Q00059); assay: In vitro run off transcription assay with recombinant mtRNAP, TFAM, TFB1M/TFB2M; type: biochemical; details: TFAM (2.5 pmol), mtRNAP/TFB1M (400 fmol) or mtRNAP/TFB2M (400 fmol)
T1 construct: 10xHis (N); 6xHis (C); made in house; host or cells: Sf9 insect cells, recombinant baculovirus (pBacPAK9)
From the text: Recombinant human mitochondrial RNA polymerase (mtRNAP), TFAM, TFB1M, and TFB2M were expressed in a baculovirus system and purified to homogeneity. The activity of these proteins was studied in vitro by run off transcription assays. The template used was a human mtDNA fragment containing the light strand promoter (LSP) followed by a 200 base pairs long stretch of double-stranded DNA. Neither, mtRNAP, TFAM, TFB1M nor TFB2M did alone initiate transcription from the mtDNA promoter. […] However, specific transcription initiation from LSP was obtained by combining either mtRNAP, TFAM and TFB1M or mtRNAP, TFAM and TFB2M. On the basis of these experiments we conclude that both TFB1M and TFB2M are functional homologues of the previously identified Saccharomyces cerevisiae protein Mtf1.
To investigate the promoter specificity of the transcription reaction, we added a double-stranded oligonucleotide containing only the LSP sequence in a 100-fold surplus to the template DNA. […]
DNA fragments corresponding to base pairs 1-741 (LSP/HSP), 1-477 (LSP) or 499-741 (HSP) of human mtDNA [Anderson et al., Nature 290:457 (1981)] were cloned into pUC18. […] The pellets were dissolved in 10 μl of gel loading buffer (98% formamide, 10 mM EDTA pH 8.0, 0.025% xylene cyanol FF, 0.025% bromophenol blue), heated at 95° C. for 5 min, and analyzed on a 5% denaturing polyacrylamide gel in 1×TBE. […]

T1 sequence (O00411 42-1230): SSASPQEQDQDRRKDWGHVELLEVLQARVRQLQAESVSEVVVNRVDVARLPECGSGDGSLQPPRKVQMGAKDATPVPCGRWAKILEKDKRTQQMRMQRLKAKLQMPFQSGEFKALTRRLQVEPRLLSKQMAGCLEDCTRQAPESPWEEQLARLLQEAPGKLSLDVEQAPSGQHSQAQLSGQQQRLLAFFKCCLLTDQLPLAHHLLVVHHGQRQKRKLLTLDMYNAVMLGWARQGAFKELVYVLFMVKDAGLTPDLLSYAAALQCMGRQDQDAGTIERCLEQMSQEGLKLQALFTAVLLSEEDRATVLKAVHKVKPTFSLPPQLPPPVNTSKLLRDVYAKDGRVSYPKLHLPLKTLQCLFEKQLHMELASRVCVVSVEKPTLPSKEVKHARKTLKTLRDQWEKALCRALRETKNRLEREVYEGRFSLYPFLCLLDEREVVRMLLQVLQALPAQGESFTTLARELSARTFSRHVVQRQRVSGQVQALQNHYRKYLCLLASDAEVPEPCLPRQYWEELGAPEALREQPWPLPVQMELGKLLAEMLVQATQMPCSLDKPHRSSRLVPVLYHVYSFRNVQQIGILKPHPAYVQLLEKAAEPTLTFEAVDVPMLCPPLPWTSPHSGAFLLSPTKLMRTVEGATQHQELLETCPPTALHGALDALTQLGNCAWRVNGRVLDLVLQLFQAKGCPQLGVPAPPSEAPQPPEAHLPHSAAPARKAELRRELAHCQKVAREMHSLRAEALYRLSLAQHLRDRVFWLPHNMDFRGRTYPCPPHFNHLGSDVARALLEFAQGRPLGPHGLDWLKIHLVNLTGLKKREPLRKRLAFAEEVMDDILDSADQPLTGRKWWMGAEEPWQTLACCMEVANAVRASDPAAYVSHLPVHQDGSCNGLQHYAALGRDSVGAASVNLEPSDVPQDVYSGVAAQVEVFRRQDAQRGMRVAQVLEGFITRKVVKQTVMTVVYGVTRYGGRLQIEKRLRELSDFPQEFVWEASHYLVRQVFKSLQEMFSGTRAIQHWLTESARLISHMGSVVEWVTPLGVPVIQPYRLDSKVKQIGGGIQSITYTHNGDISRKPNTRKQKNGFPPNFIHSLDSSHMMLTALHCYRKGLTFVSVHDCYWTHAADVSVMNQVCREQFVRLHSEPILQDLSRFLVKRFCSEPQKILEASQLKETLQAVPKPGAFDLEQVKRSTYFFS
T1 sequence (Q00059 43-246): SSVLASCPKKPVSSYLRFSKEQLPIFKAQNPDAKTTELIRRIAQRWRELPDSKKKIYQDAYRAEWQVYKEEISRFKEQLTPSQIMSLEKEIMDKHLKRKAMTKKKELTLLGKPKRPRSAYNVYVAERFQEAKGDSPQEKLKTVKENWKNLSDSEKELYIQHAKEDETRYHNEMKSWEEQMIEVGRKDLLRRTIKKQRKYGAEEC

Row | Molecule | cell death in the cell population [2] | differentiation in the surviving population [2] | further results
1 | Cc1c2oc3c(C)ccc(C(=O)N[C@@H]4C(=O)N[C@H](C(C)C)C(=O)N5CCC[C@H]5C(=O)N(C)CC(=O)N(C)[C@@H](C(C)C)C(=O)O[C@@H]4C)c3nc-2c(C(=O)N[C@@H]2C(=O)N[C@H](C(C)C)C(=O)N3CCC[C@H]3C(=O)N(C)CC(=O)N(C)[C@@H](C(C)C)C(=O)O[C@@H]2C)c(N)c1=O [actinomycin D] (I: T[dV]P[Sar][NMeV] / II: T[dV]P[Sar][NMeV]; ester I:1-I:C, II:1-II:C; linker I:N-II:N via Actinocin(9to1)) |  |  | apoptosis induced in ρ^0 cells compared with ρ^+ cells (early apoptotic cells, annexin V positive/propidium iodide negative) [1]: no significant differences in the fraction of apoptotic cells; proapoptotic effect on ρ^0 or ρ^+ cells [1]: proapoptotic effect on both ρ^0 and ρ^+ cells
2 | Oligomycine | increase cell death | induce differentiation | 
3 | TNFα |  |  | proapoptotic effect on ρ^0 or ρ^+ cells [1]: no proapoptotic effect
4 | Antimycin A | increase cell death | induce differentiation | 
5 | C=C(C)[C@H]1Cc2c(ccc3c2O[C@@H]2COc4cc(OC)c(OC)cc4[C@@H]2C3=O)O1 [Rotenone] | increase cell death | induce differentiation | 
6 | CN[C@@H]1C[C@H]2O[C@@](C)([C@@H]1OC)n1c3ccccc3c3c4c(c5c6ccccc6n2c5c31)C(=O)NC4 [STP, staurosporine] |  |  | apoptosis induced in ρ^0 cells compared with ρ^+ cells (early apoptotic cells, annexin V positive/propidium iodide negative) [1]: more STP-induced apoptosis in cells with mtDNA (ρ^+ cells) than in their mtDNA-less derivatives; induction of caspase 3 activity [3]: significant induction of caspase 3 activity in both ρ^0 and ρ^+ cells
7 | B1 |  |  | transcriptional activation compared with TFB1M [4]: at least one order of magnitude greater
